Measured values from the supplement of paper PMC10307832.

What follows are cell lines tested with Cn1c(=O)n(-c2ccc(C(C)(C)C#N)cc2)c2c3cc(-c4cnc5ccccc5c4)ccc3ncc21 [Dactolisib] + CCNC(=O)c1noc(-c2cc(C(C)C)c(O)cc2O)c1-c1ccc(CN2CCOCC2)cc1 [Luminespib] (partner 0.01 µM) (assay: relative viability (nuclei count vs DMSO), 5 days (fraction); higher = more cells survive). Conditions: first compound 0.002 µM.
Summary of the method: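 Relative viability equals treated-well nuclei counts divided by vehicle-well nuclei counts. Counts came from 4× images of lung cancer cell lines grown in 1536-well plates for 5 days after pin-tool dosing on the day after seeding. Dosing used one drug alone or a fixed anchor-drug dose plus five library-drug doses (not always all listed) in √10 steps, and values are medians of duplicate plates.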

Cell Line | relative viability
HARA | 0.829
NCI-H322M | 0.36
LCLC-97TM1 | 0.753
NCI-H2009 | 1.14
A-427 | 0.737
NCI-H441 | 0.446
NCI-H661 | 0.929
NCI-H1734 | 0.151
NCI-H460 | 0.0375
NCI-H2347 | 0.49
SW 1573 | 0.234
NCI-H1395 | 0.544
201T | 1.15
NCI-H1915 | 0.78
HCC-827 | 0.532
LXF-289 | 0.698
NCI-H23 | 0.205
NCI-H647 | 0.153
CAL-12T | 0.477
NCI-H1651 | 1.13
EPLC-272H | 0.691
NCI-H2228 | 0.15
NCI-H1792 | 0.259
NCI-H1355 | 0.862
NCI-H3122 | 0.134
NCI-H1437 | 1.15

Same assay, conditions: first compound 0.006325 µM

Cell Line | relative viability
BEN | 0.234
HARA | 0.462
NCI-H322M | 0.741
LCLC-97TM1 | 0.754
NCI-H2009 | 1.05
A-427 | 0.834
NCI-H441 | 0.331
NCI-H661 | 0.99
NCI-H1734 | 0.211
NCI-H460 | 0.0432
NCI-H2347 | 0.433
SW 1573 | 0.214
NCI-H1395 | 0.681
201T | 0.992
NCI-H1915 | 0.823
HCC-827 | 0.626
LXF-289 | 0.688
NCI-H23 | 0.208
NCI-H647 | 0.149
CAL-12T | 0.128
NCI-H1651 | 0.818
EPLC-272H | 0.262
NCI-H2228 | 0.143
NCI-H1792 | 0.403
NCI-H1355 | 0.705
NCI-H3122 | 0.0901
NCI-H1437 | 1.18

Same assay, conditions: first compound 0.02 µM

Cell Line | relative viability
BEN | 0.366
HARA | 0.62
NCI-H322M | 0.612
LCLC-97TM1 | 0.661
NCI-H2009 | 0.89
A-427 | 0.861
NCI-H441 | 0.305
NCI-H661 | 0.866
NCI-H1734 | 0.196
NCI-H460 | 0.0185
NCI-H2347 | 0.467
SW 1573 | 0.214
NCI-H1395 | 0.678
201T | 0.952
NCI-H1915 | 0.692
HCC-827 | 0.538
LXF-289 | 0.669
NCI-H23 | 0.222
NCI-H647 | 0.109
CAL-12T | 0.117
NCI-H1651 | 0.863
EPLC-272H | 0.264
NCI-H2228 | 0.112
NCI-H1792 | 0.404
NCI-H1355 | 0.529
NCI-H3122 | 0.104
NCI-H1437 | 1.21

Same assay, conditions: first compound 0.06325 µM

Cell Line | relative viability
BEN | 0.25
HARA | 0.314
NCI-H322M | 0.4
LCLC-97TM1 | 0.46
NCI-H2009 | 1
A-427 | 0.572
NCI-H441 | 0.285
NCI-H661 | 0.391
NCI-H1734 | 0.184
NCI-H460 | 0.0179
NCI-H2347 | 0.286
SW 1573 | 0.168
NCI-H1395 | 0.434
201T | 0.89
NCI-H1915 | 0.516
HCC-827 | 0.401
LXF-289 | 0.478
NCI-H23 | 0.191
NCI-H647 | 0.0951
CAL-12T | 0.142
NCI-H1651 | 0.309
EPLC-272H | 0.203
NCI-H2228 | 0.176
NCI-H1792 | 0.142
NCI-H1355 | 0.276
NCI-H3122 | 0.0762
NCI-H1437 | 1.14

Same assay, conditions: first compound 0.2 µM

Cell Line | relative viability
BEN | 0.268
HARA | 0.121
NCI-H322M | 0.323
LCLC-97TM1 | 0.213
NCI-H2009 | 0.362
A-427 | 0.47
NCI-H441 | 0.206
NCI-H661 | 0.496
NCI-H1734 | 0.169
NCI-H460 | 0.0243
NCI-H2347 | 0.284
SW 1573 | 0.0994
NCI-H1395 | 0.43
201T | 0.469
NCI-H1915 | 0.442
HCC-827 | 0.144
LXF-289 | 0.403
NCI-H23 | 0.203
NCI-H647 | 0.0891
CAL-12T | 0.12
NCI-H1651 | 0.321
EPLC-272H | 0.23
NCI-H2228 | 0.128
NCI-H1792 | 0.11
NCI-H1355 | 0.186
NCI-H3122 | 0.085
NCI-H1437 | 0.59
